Data as given in US6740335B1, “Liposomal camptothecin formulations” (priority 1997, dated 2004).
Structures can show the parent of a compound that is named as a salt.

Tests used:
[1] = system: MDA-MB-468 (Breast); assay: 3H-thymidine incorporation cytotoxicity assay, MDA-MB-468; type: cell-based, human; settings: Homo sapiens, MDA-MB-468, 42 h; read-out: Median IC50
Procedure: (§1) In vitro efficacy screening has been performed using GI147211 and liposomal formulations of GI147211. […] Standard tumor cell-based cytototoxicity assays assessing ^3H-thymidine incorporation were performed.
(§2) Tumor cells were seeded into 96-well tissue culture plates (1×10^4 cells/well)≡4 h prior to experimentation. […] Positive and negative (Tris treated) control groups were included on each assay plate. Tumor cells were then labeled with 0.25 μCi of [methyl-^3H] thymidine and incubated for 42 h under tissue culture conditions (37° C., 5% CO2, 100% relative humidity), except for C6, U251, A673 and B16-F1 cells which were incubated for 24 h. Cells were then lysed, harvested onto glass-fiber filters and unincorporated [methyl-^3H] thymidine removed by filter washing. Filters were processed for scintillation counting and cpm-^3H/well determined. […] Data are presented from multiple sets of experimentation, involving multiple liposomal formulations of GI147211.

[2] = system: MCF-7 (Breast); assay: 3H-thymidine incorporation cytotoxicity assay, MCF-7; type: cell-based, human; settings: Homo sapiens, MCF7; MCF-7, 42 h; read-out: Median IC50
Procedure: as §1, §2

[3] = system: LS-513 (Cecum); assay: 3H-thymidine incorporation cytotoxicity assay, LS-513; type: cell-based, human; settings: Homo sapiens, LS-513, 42 h; read-out: Median IC50
Procedure: as §1, §2

[4] = system: B16-F1 (Melanoma, murine); assay: 3H-thymidine incorporation cytotoxicity assay, B16-F1; type: cell-based; settings: Mus musculus, B16-F1, 24 h; read-out: Median IC50
Procedure: as §1, §2

[5] = system: U937 (Lymphoma); assay: 3H-thymidine incorporation cytotoxicity assay, U937; type: cell-based, human; settings: Homo sapiens, U-937; U937, 42 h; read-out: Median IC50
Procedure: as §1, §2

[6] = system: HT-29 (Colon); assay: 3H-thymidine incorporation cytotoxicity assay, HT-29; type: cell-based, human; settings: Homo sapiens, HT-29, 42 h; read-out: Median IC50
Procedure: as §1, §2

[7] = system: tumor cell; settings: tumor cell cytotoxicity assays; cited from earlier work
[8] = system: KBV (oralpharyngial carcinoma, vincristine resistant phenotype); assay: 3H-thymidine incorporation cytotoxicity assay, KBV; type: cell-based, human; settings: Homo sapiens, 42 h, read-out: Median IC50
Procedure: as §1, §2

[9] = system: MDR + , KBV Xenograft; assay: Repeat dose efficacy at equal toxic doses, KBV xenograft; type: in vivo, nude mice; settings: days 1, 8 and 15
Procedure: Drugs were dosed on days 1,8 and 15.

[10] = Precipitation of GI147211 with counterion excipients (HPLC of supernatant); type: physicochemical
Procedure: The excipients include, but are not limited to, the acid, sodium or ammonium forms of monovalent anions such as chloride, acetate, lactobionate and formnate; divalent anions such as succinate, aspartate and sulfate; and trivalent ions such as citrate and phosphate. To assess the relative degree of precipitation brought about with each excipient, 5 mg/ml solutions of GI147211 were prepared at low pH (2±0.5) and different counterions were added. The solutions of GI147211 and counterion were allowed to stand for 15 to 20 minutes, then centrifuiged at 3600 rpm for 10 minutes to isolate the precipitate. The quantity of GI147211 remaining in solution for each sample was then assessed by assaying the supernatants using HPLC with the following conditions: C18 ODS Hypersil column from Keystone, mobile phase of 30/70 (v/v) acetonitrile/0.1% acetic acid +0.1% aqueous triethylamine buffer, pH 3.30 with LTV detection at 270 nm. The amount of GI147211 precipitated was also tabulated by the taking the difference of the concentration of the remaining soluble fraction from Smg/ml, the original GI1147211 concentration in solution. Each number is expressed in Table 6 as percentage of the original solution concentration of 5 mg/ml.
To more fully explore the concentration dependence of GI147211 precipitation, 5 mg/ml solutions of the drug were prepared as described in Example 3 and titrated with increasing concentrations of the counterion excipients sulfate, citrate, phosphate and chloride. The solutions of GI147211 and counterion were allowed to stand for 15 to 20 minutes, then centrifuged at 3600 rpm for 10 minutes to isolate the precipitate and the supernatants were assayed as described in Example 3.
In a separate study, precipitation of the camptothecin GI147211 was examined at the predicted concentration in the interior of the liposome (approx. 40 mg/ml camptothecin GI147211) after loading in the presence of 50 mM ammonium sulfate.

[11] = system: H460 (Lung, Non-Small Cell); assay: 3H-thymidine incorporation cytotoxicity assay, H460; type: cell-based, human; settings: Homo sapiens, NCI-H460, 42 h; read-out: Median IC50
Procedure: as §1, §2

[12] = system: SKOV-3 (ovarian carcinoma); assay: 3H-thymidine incorporation cytotoxicity assay, SKOV-3; type: cell-based, human; settings: Homo sapiens, SK-OV-3; SKOV-3, 42 h; read-out: Median IC50
Procedure: as §1, §2

[13] = system: KB Tumor Xenograft; assay: HSPC vs DSPC liposomal GI147211 repeat-dose study, KB xenograft; type: in vivo, nude mice; settings: 14 mg/kg iv, two drug doses
Description: On a day 1 and day 8 dose schedule and after two weeks rest the same cycle of therapy was repeated with doses delivered on day 23 and day 30.

[14] = system: U87-MG (Astrocytoma); assay: 3H-thymidine incorporation cytotoxicity assay, U87-MG; type: cell-based, human; settings: Homo sapiens, U-87 MG, 42 h, read-out: Median IC50
Procedure: as §1, §2

[15] = 5 mg/ml GI147211, pH 2±0.5, aspartate 50 mM
[16] = 5 mg/ml GI147211, pH 2±0.5, chloride 100 mM
[17] = 5 mg/ml GI147211, pH 2±0.5, citrate 20 mM
[18] = 5 mg/ml GI147211, pH 2±0.5, citrate 50 mM
[19] = 5 mg/ml GI147211, pH 2±0.5, formate 50 mM
[20] = 5 mg/ml GI147211, pH 2±0.5, lactobionate 50 mM
[21] = 5 mg/ml GI147211, pH 2±0.5, phosphate 100 mM
[22] = 5 mg/ml GI147211, pH 2±0.5, succinate 500 mM
[23] = 5 mg/ml GI147211, pH 2±0.5, sucrose 300 mM
[24] = 5 mg/ml GI147211, pH 2±0.5, sulfate 20 mM
[25] = 5 mg/ml GI147211, pH 2±0.5, sulfate 50 mM
[26] = approx. 40 mg/ml GI147211, 50 mM ammonium sulfate

CCC1(O)C(=O)OCc2c1cc1n(c2=O)Cc2c-1nc1cc3c(cc1c2CN1CCN(C)CC1)OCCO3 (stereo in doubt) [GI147211, 7-(4-methylpiperazinomethylene)-10,11-ethylenedioxy-20(S)-camptothecin dihydrochloride]
IC50 [1]: 6.42 ng/mL | IC50 [2]: 44.1 ng/mL | IC50 [3]: 4.89 ng/mL | IC50 [4]: 111 ng/mL | IC50 [5]: 4.22 ng/mL | IC50 [6]: 0.763 ng/mL | potency relative to topotecan [7]: 5-10 times | IC50 [8]: 584 ng/mL | Days to 1000% ([9]; 12 mg/kg): 16.15 days | Log 10 Cell Kill ([9]; 12 mg/kg): 0.53 | T − C ([9]; 12 mg/kg): 7.58 | Toxic Deaths ([9]; 12 mg/kg): 3 | Days to 1000% ([9]; 14 mg/kg): 17 days | Log 10 Cell Kill ([9]; 14 mg/kg): 0.59 | T − C ([9]; 14 mg/kg): 8.43 | Toxic Deaths ([9]; 14 mg/kg): 3 | Days to 1000% ([9]; 16 mg/kg): 17 days | Log 10 Cell Kill ([9]; 16 mg/kg): 0.59 | T − C ([9]; 16 mg/kg): 8.43 | Toxic Deaths ([9]; 16 mg/kg): 1 | % GI147211 Precipitated [10, 15]: 57.8% | % GI147211 Remaining in Solution [10, 15]: 42.2% | % GI147211 Precipitated [10, 16]: 85.2% | % GI147211 Remaining in Solution [10, 16]: 14.8% | % GI147211 Precipitated [10, 17]: 98.8% | % GI147211 Remaining in Solution [10, 17]: 1.2% | % GI147211 Precipitated [10, 18]: 99.1% | % GI147211 Remaining in Solution [10, 18]: 0.9% | % GI147211 Precipitated [10, 19]: 64.7% | % GI147211 Remaining in Solution [10, 19]: 35.3% | % GI147211 Precipitated [10, 20]: 6.2% | % GI147211 Remaining in Solution [10, 20]: 93.8% | % GI147211 Precipitated [10, 21]: 82.3% | % GI147211 Remaining in Solution [10, 21]: 17.7% | % GI147211 Precipitated [10, 22]: 98.8% | % GI147211 Remaining in Solution [10, 22]: 1.2% | % GI147211 Precipitated [10, 23]: 8.2% | % GI147211 Remaining in Solution [10, 23]: 91.8% | % GI147211 Precipitated [10, 24]: 97.9% | % GI147211 Remaining in Solution [10, 24]: 2.1% | % GI147211 Precipitated [10, 25]: 98.1% | % GI147211 Remaining in Solution [10, 25]: 1.9% | drug precipitated [10, 26]: ~99% | remained in solution [10, 26]: 0.5% | drug precipitated ([10]; chloride and phosphate): greater than 82% | drug precipitated ([10]; formate and aspartate): greater than 55% | drug precipitated ([10]; sucrose and lactobionate): less than 10% | drug precipitated ([10]; sulfate, citrate, and succinate): greater than 97% | IC50 [11]: 3.61 ng/mL | IC50 [12]: 1.63 ng/mL | Cures (tumor-free animals at day 60) [13]: 0/8 | Log Cell Kill Index [13]: 0.81 | T − C (to achieve 400% tumor volume increase) [13]: 13.4 | Toxic Deaths [13]: 0/8 | % TGI ([13]; day 18): 77.5% | IC50 [14]: 2.36 ng/mL
